Reference: ChEMBL document CHEMBL3132829, “Optimization of triazole-based TGR5 agonists towards orally available agents” (Medchemcomm, 2013)

Key:
Type in all cases: ADME, organism-based, Canis lupus familiaris
[1] = Tmax in beagle dog at 1 mg/kg, iv and 3 mg/kg, po by LC-MS/MS analysis; settings: in vivo
[2] = Volume of distribution at steady state in beagle dog at 1 mg/kg, iv and 3 mg/kg, po by LC-MS/MS analysis; settings: in vivo, read-out: Vdss
[3] = Oral bioavailability in beagle dog at 3 mg/kg by LC-MS/MS analysis; settings: in vivo
[4] = Cmax in beagle dog at 1 mg/kg, iv and 3 mg/kg, po by LC-MS/MS analysis; settings: in vivo
[5] = Half life in beagle dog at 1 mg/kg, iv and 3 mg/kg, po by LC-MS/MS analysis; settings: in vivo

What does the source list for `COc1cccc(-n2nnc(C3CC3)c2C(=O)N(C)c2ccc(C#N)cc2)c1`?
Tmax [1]: 0.25 h; Vd [2]: 4.6 L/kg; bioavailability [3]: 17%; Cmax [4]: 510 nM; half-life [5]: 4.7 h
